# Laboratory results taken from PMC9101764, “Synthesis and In Vitro Characterization of Selective Cannabinoid CB2 Receptor Agonists: Biological Evaluation against Neuroblastoma Cancer Cells” (Molecules, 2022).
# Experiments:
# [1] = target: T1, hCB1R (Homo sapiens, UniProt P21554); assay: [3H]CP55,940 radioligand displacement assay, CHO cell membranes; assay type: binding
# T1 construct: expressed in transfected cells; host or cells: CHO cells (membranes)
# Procedure: (§1) CHO cells stably expressing hCB1R or hCB2R were maintained at 37 °C and 5% CO2 in Gibco Ham’s F-12 nutrient mix (Fisher Scientific, Loughborough, UK ) supplemented with 2 mM L-glutamine, 10% fetal bovine serum (FBS), 0.6% penicillin−streptomycin (Fisher Scientific, Loughborough UK), and the disulfate salt of geneticin (G418) as previously described (Sigma-Aldrich, Poole, UK). For subsequent radioligand displacement assays, membranes were prepared by scraping cells from flasks, centrifuging the cells, and storing the cell pellet at −20 °C. When required for us, cell pellets were defrosted and diluted in tris buffer (50 mM Tris-HCl and 50 mM Tris-base). As we have described in previous studies, HitHunter (cAMP) and PathHunter (βarrestin2) CHO-K1 cells stably expressing hCB1R or hCB2R from DiscoveRx® (Eurofins, Fremont, CA, USA) were maintained at 37 °C, 5% CO2 in F-12 DMEM containing 10% FBS and 1% Pen/Strep with 800 µg/mL geneticin (HitHunter) or 800 µg/mL G418 and 300 µg/mL hygromycin B (PathHunter).
# (§2) We have previously described radioligand displacement assays in detail. […] Binding reactions were terminated by ice-cold tris binding buffer and subsequent vacuum filtration (24-well sampling manifold (Brandel cell harvester; Brandel Inc., Gaithersburg, MD, USA)) using Brandel GF/B filters soaked in wash buffer at 4 °C for at least 24 h. Filters were washed with 1.2 mL of tris-binding buffer six times, then oven-dried for 60 min before being incubated in 3 mL of scintillation fluid (Ultima Gold XR, PerkinElmer, Seer Green, Buckinghamshire, UK). Radioactivity was quantified by liquid scintillation spectrometry. All compounds were first prepared at 10 mM solutions in DMSO. The final vehicle concentration for assays was 0.1% DMSO. All assays were performed in duplicate.
# (§3) Estimates of Ki, EC50, and Emax were determined using non-linear regression three-parameters (GraphPad, Prism, v. 9.0).
# [2] = target: T2, hCB2R (Homo sapiens, UniProt P34972); assay: as above; assay type: binding
# T2 construct: host or cells: HitHunter CHO-K1 cells
# T2 sequence (P34972 whole entry): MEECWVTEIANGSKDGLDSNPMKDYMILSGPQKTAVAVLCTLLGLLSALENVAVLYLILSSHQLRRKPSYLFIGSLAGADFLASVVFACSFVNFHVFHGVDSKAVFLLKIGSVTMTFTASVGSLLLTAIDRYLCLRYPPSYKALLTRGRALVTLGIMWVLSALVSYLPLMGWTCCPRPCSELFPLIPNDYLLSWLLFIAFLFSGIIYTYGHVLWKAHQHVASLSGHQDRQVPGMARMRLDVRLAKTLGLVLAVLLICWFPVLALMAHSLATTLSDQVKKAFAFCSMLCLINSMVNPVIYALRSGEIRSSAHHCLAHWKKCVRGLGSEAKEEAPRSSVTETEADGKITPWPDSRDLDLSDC
# Procedure: as §1, §2, §3
# [3] = target: T2, hCB2R; assay: PathHunter β-arrestin2 recruitment assay in CHO cells; assay type: cell-based
# Procedure: Compounds FG158a, FG160a, FG161a, and LV62 were also evaluated for their ability to recruit β-arrestin2, since G protein-coupled receptors also interact with β-arrestin, which facilitates receptor internalization, recycling, degradation, and signaling.
# as §1
# The quantification of β-arrestin2 recruitment using the DiscoveRx PathHunter assay has been described by our group previously and is summarized here.. Twenty thousand cells/well were grown overnight in Opti-MEM containing 1% FBS at 37 °C and 5% CO2 in low-volume 96 well plates. The next day, cells were treated with compounds for 90 min at 37 °C. Detection solution was added to cells according to the manufacturer’s directions (DiscoveRx) and cells were stored for 60 min at room temperature. After this incubation, chemiluminescence was quantified on a Cytation5 plate reader (top read, gain 200, integration time 10,000 ms).
# as §3
# Data are fitted to a non−linear regression (three parameter model, GraphPad v. 9.0). Data are mean ± S.E.M. of 6 independent experiments performed in triplicate.
# [4] = tested on: ERK1/2; assay: ERK1/2 Western blot and densitometric analysis; assay type: cell-based, human; settings: SH-SY5Y cells
# Description: Among the CB2R agonists tested, we selected FG158a as it provides the best dose–response curve in SH-SY5Y cells (Figure 4B). The effect of CB2R agonists on the ERK pathway has been previously detected in other tumor models such as a breast cancer model. The dysregulation of the ERK/MAPK pathway is crucial in neuroblastoma. […] We addressed the effect of FG158a on MAPK kinase activation by the evaluation of its component ERK1/2 in the presence and in the absence of the antagonist SR144528 (Figure 6).
# After the treatment with FG158a (20 μM) in the presence and absence of SR144528 (added 1 h before the CB2R agonist at the concentration of 1 µM), SHSY5Y cells were centrifuged and cell pellets were lysed in R.I.P.A. buffer (50 mM Tris-HCl, pH = 7.4; 150 mM NaCl; […], 1% NP-40; 0.5% sodium deoxycholate; 0.1% SDS; 1:100 phosphatase and protease inhibitors, both added before the lysis). Samples were centrifuged (17,900× g 20′ at 4 °C) and protein concentration was determined by Bio-Rad Protein Assay (Bio-Rad, Berkeley, CA, USA) as previously described. […]
# Figure 6 FG158a inhibition of ERK1/2 is mediated by CB2R. […] The statistical analysis was performed by parametric two tailed t-test (* p < 0.05 FG158a calculated with respect to the CTR; ^& p < 0.01 FG158a+SR144528 calculated with respect to FG158a).
# [5] = CHO membranes, 0.1 nM-10 μM compounds
# T1 sequence (P21554 whole entry): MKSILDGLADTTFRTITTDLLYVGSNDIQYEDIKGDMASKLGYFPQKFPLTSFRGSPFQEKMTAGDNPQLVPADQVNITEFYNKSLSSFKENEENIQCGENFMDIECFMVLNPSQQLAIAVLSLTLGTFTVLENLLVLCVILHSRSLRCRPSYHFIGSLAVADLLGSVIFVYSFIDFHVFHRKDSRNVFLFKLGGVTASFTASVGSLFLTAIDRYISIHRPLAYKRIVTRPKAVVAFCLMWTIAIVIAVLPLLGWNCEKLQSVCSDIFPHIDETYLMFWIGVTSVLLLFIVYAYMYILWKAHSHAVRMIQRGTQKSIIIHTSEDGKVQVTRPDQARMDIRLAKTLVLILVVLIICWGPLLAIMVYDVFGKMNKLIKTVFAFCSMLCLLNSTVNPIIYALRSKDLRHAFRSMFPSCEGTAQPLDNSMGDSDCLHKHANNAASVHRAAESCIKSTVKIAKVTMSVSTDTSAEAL
smiles,measurement,setting,value
"CC1CCC(NC(=O)c2cc3cccnc3n(CCCCCBr)c2=O)CC1 (centres unmarked) [FG158a, 1-(5-bromopentyl)-N-(4-methylcyclohexyl)-2-oxo-1,2-dihydro-1,8-naphthyridine-3-carboxamide]",Ki,[1],> 10 µM
same,"displacement of [3H]CP55,940 at hCB1R",[1]; [5],"not able to displace [^3H]CP55,940"
same,Ki,[2],0.021 µM
same,"displacement of [3H]CP55,940 at hCB2R",[2]; [5],"fully displaced [^3H]CP55,940"
same,EC50,[3],> 10 µM
same,"β-Arrestin2 Recruitment Emax (% CP55,940) ± S.E.M","[3]; CHO cells expressing human CB2R, 90 min","46 ± 1.8 % CP55,940"
same,effect on ERK1/2 expression in presence of SR144528,[4]; 20 µM FG158a + SR144528 1 µM added 1 h before,reversed the inhibitory effect
same,effect on ERK1/2 expression,"[4]; 20 µM, vs untreated control cells",inhibited ERK1/2 expression
